Earlier results on three compounds are cited in patent US7125886B2, “5-HT3 receptor antagonists and methods of use” (Aryx Therapeutics, priority 2002, dated 2006).

Series [1] addresses T1, 5-HT3 receptor (Homo sapiens, UniProt P46098).
T1 sequence (P46098 24-478): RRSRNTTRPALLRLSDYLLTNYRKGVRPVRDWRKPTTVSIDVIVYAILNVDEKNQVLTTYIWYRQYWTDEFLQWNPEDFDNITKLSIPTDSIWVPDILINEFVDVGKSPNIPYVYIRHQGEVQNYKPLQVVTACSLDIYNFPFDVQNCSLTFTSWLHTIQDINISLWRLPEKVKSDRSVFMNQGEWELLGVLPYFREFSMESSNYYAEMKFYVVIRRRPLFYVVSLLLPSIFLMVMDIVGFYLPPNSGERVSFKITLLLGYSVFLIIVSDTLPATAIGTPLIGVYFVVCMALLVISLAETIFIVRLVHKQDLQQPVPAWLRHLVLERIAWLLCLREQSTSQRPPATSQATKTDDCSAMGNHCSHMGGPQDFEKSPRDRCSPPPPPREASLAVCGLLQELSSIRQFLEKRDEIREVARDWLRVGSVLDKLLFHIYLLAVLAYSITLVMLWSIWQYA

For series [2] the following is noted: received by the FDA.
For series [3] the following is noted: up to 3 months of treatment; versus placebo and mebeverine.
The conditions of series [4]: at least 12 weeks of treatment, patients with IBS.

As to `Cc1[nH]cnc1CN1CCc2c(c3cccc(O)c3n2C)C1=O` [6-Hydroxy-alosetron], the “potency relative to alosetron” value in series [1] is listed as “twice as potent as alosetron”.

Consider `Cc1[nH]cnc1CN1CCc2c(c3ccccc3n2C)C1=O` [Alosetron, 2,3,4,5-tetrahydro-5-methyl-2-[(5-methyl-1H-imidazol-4-yl)methyl]-1H-pyrido [4,3-b]indol-1-one], for which, under “females compared with males”, the “greater drug exposure in females than males” value is on record as 60% and the “mean peak plasma concentration higher in females” value was 45–100%. Moreover, under “in vivo”, the half-life is 1.5 h. Besides, the oral bioavailability entry (oral) is “approximately 60%”. Also, the “reports of deaths associated with alosetron” value in series [2] was 3. In addition, the “improving perception of visceral pain, spasms and diarrhea” value in series [3] is recorded as “significantly superior”. In series [4], the “constipation, patients with adverse event” value is recorded as 28%.

Take `Cc1[nH]cnc1CN1CCc2c(c3cccc(O[C@@H]4O[C@H](C(=O)O)[C@@H](O)[C@H](O)[C@H]4O)c3n2C)C1=O` [6-OH-alosetron glucuronide]: in series [1], the “5-HT3 receptor binding affinity” value is recorded as “potent”.
